Here are results for 19 compounds from patent US9822130B2, “Triazolo-pyrazinyl derivatives useful as soluble guanylate cyclase activators” (Merck Sharp & Dohme Corp., priority 2014, dated 2017).

The target of the assay is T1, sGC α1/β1 heterodimer stably expressed in CHO-K1 cell line (CHO-K1/sGC) (Homo sapiens, UniProt Q02108+Q02153).
T1 construct: expressed in transfected cells
T1 sequence (Q02108 1-690): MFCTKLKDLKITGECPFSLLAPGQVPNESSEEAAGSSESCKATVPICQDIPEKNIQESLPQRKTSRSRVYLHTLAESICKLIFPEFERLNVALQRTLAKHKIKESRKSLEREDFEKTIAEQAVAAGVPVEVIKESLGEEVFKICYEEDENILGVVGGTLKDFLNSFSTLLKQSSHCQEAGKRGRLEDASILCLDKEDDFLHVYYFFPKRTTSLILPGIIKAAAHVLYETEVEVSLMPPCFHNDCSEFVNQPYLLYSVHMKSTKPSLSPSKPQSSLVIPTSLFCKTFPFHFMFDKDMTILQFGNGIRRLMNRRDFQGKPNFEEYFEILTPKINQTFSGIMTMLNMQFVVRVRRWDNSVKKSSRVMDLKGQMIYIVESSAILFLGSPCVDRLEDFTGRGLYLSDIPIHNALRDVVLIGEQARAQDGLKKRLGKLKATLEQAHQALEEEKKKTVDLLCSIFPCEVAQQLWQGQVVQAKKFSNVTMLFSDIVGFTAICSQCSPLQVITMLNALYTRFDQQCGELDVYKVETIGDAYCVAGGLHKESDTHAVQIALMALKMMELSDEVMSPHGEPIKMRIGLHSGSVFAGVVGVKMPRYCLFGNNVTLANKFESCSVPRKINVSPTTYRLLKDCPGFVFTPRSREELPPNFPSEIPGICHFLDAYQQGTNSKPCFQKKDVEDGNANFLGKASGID
T1 sequence (Q02153 1-619): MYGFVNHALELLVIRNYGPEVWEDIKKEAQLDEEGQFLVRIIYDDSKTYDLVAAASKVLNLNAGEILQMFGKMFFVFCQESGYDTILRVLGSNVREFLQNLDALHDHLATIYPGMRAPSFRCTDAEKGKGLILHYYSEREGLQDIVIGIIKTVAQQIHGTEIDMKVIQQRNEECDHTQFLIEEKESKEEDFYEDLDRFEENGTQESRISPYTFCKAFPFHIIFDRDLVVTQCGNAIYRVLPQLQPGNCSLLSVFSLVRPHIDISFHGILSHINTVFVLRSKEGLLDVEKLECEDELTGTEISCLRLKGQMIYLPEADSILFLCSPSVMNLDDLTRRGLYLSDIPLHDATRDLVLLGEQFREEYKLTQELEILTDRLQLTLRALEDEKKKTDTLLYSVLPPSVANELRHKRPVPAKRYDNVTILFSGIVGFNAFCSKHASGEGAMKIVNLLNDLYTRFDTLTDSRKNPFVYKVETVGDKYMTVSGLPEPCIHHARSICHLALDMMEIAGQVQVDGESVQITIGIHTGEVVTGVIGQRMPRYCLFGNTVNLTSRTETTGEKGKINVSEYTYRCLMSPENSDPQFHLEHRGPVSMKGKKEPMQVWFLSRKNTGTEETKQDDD
The experiment in a line: Cell-based sGC Functional Assay (CASA Assay), cGMP generation. The conditions noted are these: CHO-K1/sGC cells, 1 hr at 37° C., cGMP by HTRF, 4P fit; presence or absence of 1 μM DETA-NO not given; read-out: IP (nM) (inflection point). In outline: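 Readout is HTRF cGMP in lysates, normalised to the maximal response of reference sGC activator Compound A (100%), with a 4P fit giving IP and fold induction. Cells were CHO-K1/sGC (human α1/β1) in EBSS buffer with IBMX, incubated 1 hr at 37° C with compound. Run with and without 1 μM DETA-NO; final DMSO 2.5%.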
For `O=C1Nc2nc(-c3cn4ncnc4c(CCC(F)(F)C(F)(F)F)n3)nc(O)c2C1(c1ccc(F)c(F)c1)C1CC1` (stereo not shown) [Example 123A, 5-cyclopropyl-5-(3,4-difluorophenyl)-4-hydroxy-2-(8-(3,3,4,4,4-pentafluorobutyl)-[1,2,4]triazolo[1,5-a]pyrazin-6-yl)-5H-pyrrolo[2,3-d]pyrimidin-6(7H)-one], the EC50 worked out at 204 nM.

On to `O=C1Nc2nc(-c3cn4ncnc4c(CCC(F)(F)C(F)(F)F)n3)nc(O)c2C1(c1cncc(F)c1)C1CC1` (stereo not shown) [Example 124B, 5-cyclopropyl-5-(5-fluoropyridin-3-yl)-4-hydroxy-2-(8-(3,3,4,4,4-pentafluorobutyl)-[1,2,4]triazolo[1,5-a]pyrazin-6-yl)-5H-pyrrolo[2,3-d]pyrimidin-6(7H)-one], for which the EC50 is 1050 nM.

For `CC1(c2cncc(F)c2)C(=O)Nc2nc(-c3cn4ncnc4c(CCC(F)(F)C(F)(F)F)n3)nc(O)c21` (stereo not shown) [Example 125A, 5-(5-fluoropyridin-3-yl)-4-hydroxy-5-methyl-2-(8-(3,3,4,4,4-pentafluorobutyl)-[1,2,4]triazolo[1,5-a]pyrazin-6-yl)-5H-pyrrolo[2,3-d]pyrimidin-6(7H)-one], the EC50 came out at 575 nM.

Turning to `CC1(c2ccc(Cl)cc2)C(=O)Nc2nc(-c3cn4ncnc4c(CCC(F)(F)C(F)(F)F)n3)nc(O)c21` (stereo not shown) [Example 126A, 5-(4-chlorophenyl)-4-hydroxy-5-methyl-2-(8-(3,3,4,4,4-pentafluorobutyl)-[1,2,4]triazolo[1,5-a]pyrazin-6-yl)-5H-pyrrolo[2,3-d]pyrimidin-6(7H)-one], the EC50 is 132 nM.

As for `CC1(c2ccccn2)C(=O)Nc2nc(-c3cn4ncnc4c(CCC(F)(F)C(F)(F)F)n3)nc(O)c21` (stereo not shown) [Example 127B, 4-hydroxy-5-methyl-2-(8-(3,3,4,4,4-pentafluorobutyl)-[1,2,4]triazolo[1,5-a]pyrazin-6-yl)-5-(pyridin-2-yl)-5H-pyrrolo[2,3-d]pyrimidin-6(7H)-one], the EC50 amounted to 1260 nM.

Take `CC1(c2ccccc2)C(=O)Nc2nc(-c3cn4ncnc4c(CCC(F)(F)C(F)(F)F)n3)nc(O)c21` (stereo not shown) [Example 128B, 4-hydroxy-5-methyl-2-(8-(3,3,4,4,4-pentafluorobutyl)-[1,2,4]triazolo[1,5-a]pyrazin-6-yl)-5-phenyl-5H-pyrrolo[2,3-d]pyrimidin-6(7H)-one]: the EC50 stood at 128 nM.

Take `CC1(c2cccc(F)c2)C(=O)Nc2nc(-c3cn4ncnc4c(CCC(F)(F)C(F)(F)F)n3)nc(O)c21` (stereo not shown) [Example 129B, 5-(3-fluorophenyl)-4-hydroxy-5-methyl-2-(8-(3,3,4,4,4-pentafluorobutyl)-[1,2,4]triazolo[1,5-a]pyrazin-6-yl)-5,7-dihydro-6H-pyrrolo[2,3-d]pyrimidin-6-one]: the EC50 stood at 51.7 nM.

Consider `Cc1ccc(C2(C)C(=O)Nc3nc(-c4cn5ncnc5c(CCC(F)(F)C(F)(F)F)n4)nc(O)c32)nc1` (stereo not shown) [Example 130B, 4-hydroxy-5-methyl-5-(5-methylpyridin-2-yl)-2-(8-(3,3,3,4,4,4-pentafluorobutyl)-[1,2,4]triazolo[1,5-a]pyrazin-6-yl)-5H-pyrrolo[2,3-d]pyrimidin-6(7H)-one], for which the EC50 came to 503 nM.

Regarding `CC1(c2ccc(C#N)cn2)C(=O)Nc2nc(-c3cn4ncnc4c(CCC(F)(F)C(F)(F)F)n3)nc(O)c21` (stereo not shown) [Example 131A, 6-(4-hydroxy-5-methyl-6-oxo-2-(8-(3,3,4,4,4-pentafluorobutyl)-[1,2,4]triazolo[1,5-a]pyrazin-6-yl)-6,7-dihydro-5H-pyrrolo[2,3-d]pyrimidin-5-yl)nicotinonitrile], the EC50 was determined as 1470 nM.

For `Cc1nc2c(CCC(F)(F)C(F)(F)F)nc(-c3nc(O)c4c(n3)NC(=O)C4(C)c3ccc(Cl)c(F)c3)cn2n1` (stereo not shown) [Example 132B, 5-(4-chloro-3-fluorophenyl)-4-hydroxy-5-methyl-2-(2-methyl-8-(3,3,4,4,4-pentafluorobutyl)-[1,2,4]triazolo[1,5-a]pyrazin-6-yl)-5H-pyrrolo[2,3-d]pyrimidin-6(7H)-one], the EC50 is 442 nM.

For the compound `Cc1nc2c(CCC(F)(F)C(F)(F)F)nc(-c3nc(O)c4c(n3)NC(=O)[C@@]4(C)c3ccc(F)cc3)cn2n1` [Example 133B, (S)-5-(4-fluorophenyl)-4-hydroxy-5-methyl-2-(2-methyl-8-(3,3,4,4,4-pentafluorobutyl)-[1,2,4]triazolo[1,5-a]pyrazin-6-yl)-5H-pyrrolo[2,3-d]pyrimidin-6(7H)-one], the EC50 turned out to be 856 nM.

For `CC1(c2ccc(Cl)cn2)C(=O)Nc2nc(-c3cn4ncnc4c(CCCC(F)(F)F)n3)nc(O)c21` (stereo not shown) [Example 134A, 5-(5-chloropyridin-2-yl)-4-hydroxy-5-methyl-2-(8-(4,4,4-trifluorobutyl)-[1,2,4]triazolo[1,5-a]pyrazin-6-yl)-5H-pyrrolo[2,3-d]pyrimidin-6(7H)-one], the EC50 is 857 nM.

As for `C[C@@]1(c2ccc(F)cc2)C(=O)Nc2nc(-c3cn4ncnc4c(CCCC(F)(F)F)n3)nc(O)c21` [Example 135A], the EC50 stood at 183 nM.

Regarding `CC1(c2ccc(F)cn2)C(=O)Nc2nc(-c3cn4ncnc4c(CCCC(F)(F)F)n3)nc(O)c21` (stereo not shown) [Example 136B, 5-(5-fluoropyridin-2-yl)-4-hydroxy-5-methyl-2-(8-(4,4,4-trifluorobutyl)-[1,2,4]triazolo[1,5-a]pyrazin-6-yl)-5H-pyrrolo[2,3-d]pyrimidin-6(7H)-one], the EC50 amounted to 514 nM.

Regarding `CC1(c2ccc(C(F)(F)F)cc2)C(=O)Nc2nc(-c3cn4ncnc4c(CCCC(F)(F)F)n3)nc(O)c21` (stereo not shown) [Example 137B, 4-hydroxy-5-methyl-2-(8-(4,4,4-trifluorobutyl)-[1,2,4]triazolo[1,5-a]pyrazin-6-yl)-5-(4-(trifluoromethyl)phenyl)-5H-pyrrolo[2,3-d]pyrimidin-6(7H)-one], the EC50 came out at 597 nM.

As to `CC1(c2ccc(Cl)c(F)c2)C(=O)Nc2nc(-c3cn4ncnc4c(CCCC(F)(F)F)n3)nc(O)c21` (stereo not shown) [Example 138B, 5-(4-chloro-3-fluorophenyl)-4-hydroxy-5-methyl-2-(8-(4,4,4-trifluorobutyl)-[1,2,4]triazolo[1,5-a]pyrazin-6-yl)-5H-pyrrolo[2,3-d]pyrimidin-6(7H)-one], the EC50 is 344 nM.

As for `O=C1Nc2nc(-c3cn4ncnc4c(CCCC(F)(F)F)n3)nc(O)c2C1(c1ccc(F)cc1)C1CC1` (stereo not shown) [Example 139B, 5-cyclopropyl-5-(4-fluorophenyl)-4-hydroxy-2-(8-(4,4,4-trifluorobutyl)-[1,2,4]triazolo[1,5-a]pyrazin-6-yl)-5H-pyrrolo[2,3-d]pyrimidin-6(7H)-one], the EC50 turned out to be 673 nM.

In the case of `O=C1Nc2nc(-c3cn4ncnc4c(CCCC(F)(F)F)n3)nc(O)c2C1(c1ccc(Cl)cc1)C1CC1` (stereo not shown) [Example 140B, 5-(4-chlorophenyl)-5-cyclopropyl-4-hydroxy-2-(8-(4,4,4-trifluorobutyl)-[1,2,4]triazolo[1,5-a]pyrazin-6-yl)-5H-pyrrolo[2,3-d]pyrimidin-6(7H)-one], the EC50 turned out to be 277 nM.

With `O=C1Nc2nc(-c3cn4ncnc4c(CCCC(F)(F)F)n3)nc(O)c2C1(c1ccc(F)c(F)c1)C1CC1` (stereo not shown) [Example 141A, 5-cyclopropyl-5-(3,4-difluorophenyl)-4-hydroxy-2-(8-(4,4,4-trifluorobutyl)-[1,2,4]triazolo[1,5-a]pyrazin-6-yl)-5H-pyrrolo[2,3-d]pyrimidin-6(7H)-one], the EC50 turned out to be 183 nM.
